Measurements taken from patent US5116845A (priority 1990, dated 1992).

Key:
mice = test: Acute toxicity, intramuscular; format: in vivo; conditions: 5 mg/kg intramuscular
P388 leukemia = test: Antitumor activity against P388 leukemia (ip); format: in vivo, mice; conditions: maximum over the doses
[1] = system: Gram-positive aerobic bacteria; format: cell-based
Gram-negative organisms = format: cell-based
Solubility = format: physicochemical
[2] = system: murine and human tumor cell lines; test: In vitro cytotoxicity
P388/VCR = test: In vitro cytotoxicity (viable cell count)
Moser and HCT-116 cells = conditions: versus murine B16-F10

Row | Structure (SMILES) | toxicity (mice) | maximum T/C (P388 leukemia) | activity against Gram-positive aerobic bacteria [1] | susceptibility of Gram-negative organisms (Gram-negative organisms) | solubility (Solubility; chloroform) | solubility (Solubility; dimethyl sulfoxide) | solubility (Solubility; dimethylformamide) | solubility (Solubility; dioxane) | solubility (Solubility; ethanol) | solubility (Solubility; ethyl acetate) | solubility (Solubility; methanol) | solubility (Solubility; n-hexane) | solubility (Solubility; water) | cytotoxicity [2] | cytotoxicity against VCR-resistant versus sensitive P388 cells (P388/VCR) | resistance of Moser and HCT-116 relative to B16-F10 (Moser and HCT-116 cells) | solubility in organic solvents (Solubility; chloroform, methanol and ethanol, compared with BU-3420T)
1 | COC1=C(C(=O)O)C(C)C23OC24c2cc(O)c5c(c2NC3C#CC=CC#CC14)C(=O)c1c(O)ccc(O)c1C5=O (centres unmarked) [BU-3420T] | did not show any toxicity | 135% | intensely potent activity | a little less susceptible | slightly soluble | soluble | soluble | soluble | slightly soluble | slightly soluble | slightly soluble | insoluble | insoluble | potent cytotoxicity | same cytotoxicities |  | 
2 | CO[C@@]12[C@H](COC(N)=O)C3=C(C(=O)C(C)=C(N)C3=O)N1C[C@@H]1N[C@@H]12 [Mitomycin C] |  |  |  |  |  |  |  |  |  |  |  |  |  |  |  | slightly more resistant | 
3 | COC1=C(C(=O)O)C(C)C23OC24c2cc(OC(C)=O)c5c(c2NC3C#C/C=C\C#CC14)C(=O)c1c(OC(C)=O)ccc(OC(C)=O)c1C5=O (centres unmarked) [BU-3420T acetate] |  | 135% | intensely potent activity | a little less susceptible |  |  |  |  |  |  |  |  |  |  |  |  | much improved solubility
